Experimental data taken from patent publication US20230190924A1, “ANTIGEN OF ALLERGY AND EPITOPE THEREOF” (HOYU CO., LTD., priority 2017, published 2023).
“Also recorded” adds a separate entry of the source.

Columns and labels:
Assay type in all cases: binding, human
IgE antibodies in serum = assay: ELISA of Fmoc-synthesised peptides with patient serum; settings: serum of cases having food allergies to chicken egg and soybean in combination
Procedure: The peptides of the aforementioned SEQ ID NOs were prepared by the Fmoc method and studied for their binding activity against IgE antibodies in serum by ELISA. On the basis of RXRXXKXX (SEQ ID NO: 329), the peptides of chicken egg RGREDKMK and soybean RFREDKEE were prepared, and their binding activity against IgE antibodies were confirmed by ELISA using the serum of cases having food allergies to chicken egg and soybean in combination.

[1] = test system: IgE antibodies from patients; assay: Epitope mapping (2) overlapping (10-amino-acid peptides) and (3) alanine scanning on peptide arrays; settings: for region within the epitope important for binding to IgE antibodies from patients: procedures (B) overlapping and (C) alanine scanning
Outline: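 Overlapping 10-mer peptides shifted by one residue, and alanine-substituted peptides, spotted on cellulose and probed with patient and non-egg-allergic sera; IgE binding read by anti-human IgE-HRP chemiluminescence. Signal expressed relative to parent sequence and graded in bands from <20% (no binding) to ≥90% (retained binding).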

[2] = test system: IgE antibody in the serum of an egg allergic patient; assay: Immunoblotting of two-dimensional electrophoresis of chicken egg (raw egg) yolk proteins with patient serum; settings: for specific reaction/binding of serum IgE with spot in immunoblot: serum of egg-allergic patient 1 (food-dependent exercise-induced anaphylaxis), versus non-egg-allergic serum
Procedure: Identification of antigens by immunoblotting was carried out by taking all the steps up to the step of “Second-dimensional SDS-PAGE” as described above in Example 1, followed by the steps of “Transfer to membrane”, “Immunoblotting” and “Analysis” as described below.
Transfer to membrane was done using the following transfer system and transfer buffer. • Transfer system: XCell SureLock Mini-Cell and XCell II Blot Module (produced by Life Technologies) • Transfer buffer: NuPAGE Transfer Buffer (X20) (produced by Life Technologies), used in a form diluted 20-fold with milliQ water.
To be specific, proteins in the two-dimensional electrophoresis gels were transferred to a membrane (PVDF membrane) according to the following procedure.
(1) The PVDF membrane was immersed in 100% methanol followed by milliQ water, and then moved into the transfer buffer to hydrophilize the PVDF membrane.
(2) After sponge, filter paper, gels treated by second-dimensional SDS-PAGE, the hydrophilized PVDF membrane, filter paper, and sponge were put in place in this order, the transfer system was energized at a constant voltage of 30 V for one hour.
Immunoblotting of the membrane was carried out using, as a primary antibody, a serum sample from patient (patient 1) with an egg allergy or a serum sample from a non-egg-allergic subject. This egg-allergic patient was a patient diagnosed with food-dependent exercise-induced anaphylaxis (FDEIA) caused by chicken eggs.
Immunoblotting of the membrane was carried out according to the following procedure. • (1) The transferred membrane was shaken in a 5% skim milk/PBST solution (a PBS buffer containing 0.1% Tween 20 nonionic surfactant) at room temperature for one hour. • (2) The membrane was left to stand in a solution of 5% primary antibody serum in 5% skim milk/PBST at room temperature for one hour. • (3) The membrane was washed with a PBST solution (5 min.×3 times). • (4) The membrane was left to stand in a 1:5000 dilution of the secondary antibody, anti-human IgE-HRP (horseradish peroxidase), with a 5% skim milk/PBST solution at room temperature for one hour. • (5) The membrane was washed with a PBST solution (5 min.×3 times). • (6) The membrane was left to stand in Pierce Western Blotting Substrate Plus (produced by Thermo) for 5 minutes. […]
The immunoblots obtained with the serum from the egg-allergic patient were compared with those obtained with the control serum from the non-egg-allergic subject. By immunoblotting of the proteins contained in the raw yolk using the serum from the egg-allergic patient (FIG. 2), three spots were detected, which are different from the spots detected when the serum of the non-egg-allergic subject was used and different from those of the known chicken egg allergen proteins.
Identification of antigens by immunoblotting was carried out using the sera of three other egg-allergic patients (patient 2, patient 3 and patient 4) in the same manner as in Example 2. By immunoblotting of the proteins contained in the raw yolk using the serum from the egg-allergic patients (FIG. 4 for patient 2, FIG. 5 for patient 3, and FIG. 6 for patient 4), spots were detected, which are different from the spots detected when the serum of the non-egg-allergic subject was used and different from those of the known chicken egg allergen proteins. To be specific, spots 4 to 8 for patient 2, spots 9 and 10 for patient 3, and spot 11 for patient 4 were detected.

[3] = serum of egg-allergic patient 3

RFREDKEE
binding activity against IgE antibodies by ELISA (IgE antibodies in serum): patient-specific binding activity was able to be confirmed

RGREDKMK
binding activity against IgE antibodies by ELISA (IgE antibodies in serum): patient-specific binding activity was able to be confirmed

SEQ ID NO: 569: region in epitope 34 (VKLYPEKDEP; epitope)
region within the epitope important for binding to IgE antibodies from patients [1]: important for binding

SEQ ID NO: 479: sequence comprising a region amino-terminally adjacent to epitope 20 (KSAGEATNLK; epitope)
binding to IgE antibodies from patients, sequence comprising a region amino-terminally adjacent to the epitope ([1]; overlapping peptides with flanking sequence): binding to IgE antibodies from patients

SEQ ID NO: 412: region in epitope 10 (MKTVVEPA; epitope)
region within the epitope important for binding to IgE antibodies from patients [1]: important for binding

B1: Spot 3: Central sequence of vitellogenin-1, or C-terminal portion (SEQ ID NO: 18) of lipovitellin-1 (protein)
chain: DKPFASGYLKMFGQELLFGRLDKDTLQNVLQVWYGPDEKIPSIRRLISSLQTGIGRQWTKALLLSEIRCIVPTCVGFPMETSFYYSSVTKVAGNVQAQITPSPRSDFRLTELLNSNVRLRSKMSLSMAKHMTFVIGINTNMIQAGLEAHTKVNAHVPVNVVATIQMKEKSIKAEIPPCKEETNLIIVSSKTFAVTRNIEDLAASKMTPVLLPEAVPDIMKMSFDSDSASGETDNIRDRQSVEDVSSGNSFSFGHPSSGKEPFIQSMCSNASTFGVQVCIEKKSVHAAFIRNVPLYNAIGEHALRMSFKPVYSDVPIEKIQVTIQAGDQAPTK
specific reaction/binding of serum IgE with spot in immunoblot [2]: specifically reacted

B2: Vitellogenin-2 precursor (protein, listed as Gallus gallus)
chain: TPVLAAFLHGISNNKKTGGLQLVVYADTDSVRPRVQVFVTNLTDSSKWKLCADASVRNAHKAVAYVKWGWDCRDYKVSTELVTGRFAGHPAAQVKLEWPKVPSNVRSVVEWFYEFVPGAAFMLGFSERMDKNPSRQARMVVALTSPRTCDVVVKLPDIILYQKAVRLPLSLPVGPRIPASELQPPIWNVFAEAPSAVLENLKARCSVSYNKIKTFNEVKFNYSMPANCYHILVQDCSSELKFLVMMK
specific reaction of serum IgE with spot in immunoblot ([2]; serum of egg-allergic patient 4): specifically reacted; also recorded: detected

B3: Apolipoprotein B precursor [Spot 10] (protein, listed as Gallus gallus)
chain: LDGSTSLTRKRGLKLATALSLNNNKFLGGSHDNSISLTKKNLEASMITNAKINTPVFKMNFSQELSGNTKSKPTISSGLKVTYDFTTPKHGISAKGGVAHKLALETLTSYLSVETSTKGNIDGAIYTGNSFSGALDHEANTYLHANGVRSSLKLEANSKVDGLWNSEMKEILAVEASTSRVYAVWEHNGKNFARYTPLFTTTGSQKCKATFELAPWTVSADLQIQVTQPNSFLDTASVNQVVLMKVSPTDQKVGWKGEGQIQSLSLRHDMQLSNEKSNAKFDISGSLEGYMDFLKRINCAISKKSLWDILKLDVTTVADRKHYLNASASFIYRKSDDGYFFPMPVIR
specific reaction of serum IgE with spot in immunoblot [2, 3]: specifically reacted; also recorded: detected

B4: vitellogenin-3 (protein)
chain: SIIENLKARCSVSQNMITTFNGVEFNYSMPANCYHILAQDCSPELKFLVMMKRLGESADLTAISVRLASHEVDMYVSNGLIQLKINGVQTPTDVPYTSKSGLLISSEKEGLSLKAPEYGVEKLYYDRRKLEIRVAFWMVGKTCGICGKYDAEKKREYQMPSGYLAKDAVSFAQSWVISEDTCTGACKLQRKFVKIEKPVAFNKKASKCFSIEPVLRCAEGCSATRTVPVSVGFHCVPSDSTLELEEEQVRLDQKSEDLVSRVDAHTACSCAQQLCSA
specific reaction/binding of serum IgE with spot in immunoblot [2]: specifically reacted

B5: Apolipoprotein B precursor [Spot 9] (protein, listed as Gallus gallus)
chain: MGPVRLLLLLLLLSSGVLTQEGTPENGNPGCSKDAARFKSLRKYVYLYEAETSSGITGTADSRSGSKITCKVELEVPQLCQFILRTMHCSLRETFGVDSERRAMLRKSKNSDDFANAMSKHELRFSTQDGTKVKLYPEKDEPLNVLNLKRGIISALLAPTETEENIKTISMDTVYGKCDSEVEFKSRRGSVAEDISINRNLKACDNFSPIRDYVSPVAIVKGLNIPLSTLLSSTQSCHYSIDAKKKHIRDVVCSEKHLFLPSSYKNQYGMMTEVNQTLKLEDNQRMNNRNPDGDELEEKGLALESTDAK
specific reaction of serum IgE with spot in immunoblot [2, 3]: specifically reacted; also recorded: detected
